The values below are quoted from earlier work in US20170151152A1, “COMBINATION OF N-ACETYL GLUCOSAMINE WITH ABSCISIC ACID AND USES THEREOF” (priority 2015, published 2017).

This data set deals with cell cultures. The following applies: 1%, 3%, 5% of 30 μL of NAG.

SMILES strings stand for the structures.

Consider `CC(=O)N[C@H]1C(O)O[C@H](CO)[C@@H](O)[C@@H]1O` (stereo partly shown) [NAG, N-acetyl glucosamine], for which the “melanin in cell cultures” value is “dose dependent decrease in melanin”.
